PMC6615598, “Novel antibiotics effective against gram-positive and -negative multi-resistant bacteria with limited resistance” (PLoS Biology, 2019)
Starred links: 1 amine or outer side, 2 acyl side, 3 side chain; linkers in the order of their positions; H or OH if unused. Non-standard residues stand in square brackets, D forms with d. Residues, ends and D or L forms follow the SMILES beside them. azaβ3(1Nal) = O=C(CN(Cc1cccc2ccccc12)N[*:1])[*:2]

Tests used:
S. aureus 66534 E = test: microbe, parasite or virus in culture
Protocol: (§1) (10−4 M final concentrations). At selected time intervals, 100 μl of reaction mixture was collected, quenched by 200 μl 95% EtOH, and adjusted at pH 2 to prevent peptide adsorption to serum proteins. […] Supernatants were analyzed by RP-HPLC on an Xbridge C18 column with a linear gradient of water, 0.08% TFA, and acetonitrile with 1% TFA. HPLC peak areas were used to calculate the percentages of intact compound remaining at the various time points. MIC and MBC values were determined in triplicate in many ESKAPE clinical isolates, including a dozen MDR S. aureus, by the broth microdilution method. Peptidomimetics and antibiotics were assayed in a concentration range of 1 to 128 μM. The bacterial inoculum (5 × 10^5 colony-forming units [CFUs]/well) was prepared in MHB or CAMHB (150 μl). A Biotek Synergy 2 spectrophotometer was used to record the results after 18–20 h incubation at 35°C (±2°C). […] After every hour of culture for 4 h, serial dilutions were plated on BHI plates and incubated overnight at 37°C, and then the CFUs were counted and expressed as log CFU/ml. Phosphate-buffered saline (PBS)-exposed S. aureus MRSA was included as a control.
(§2) Supplementary file pbio.3000337.s007.docx: S1 Table Antibacterial activity of the 4 peptidomimetics focusing on 9 S. aureus MDR clinical isolates. Clinical isolates BCB/POE and 740404 DUN are from human sepsis. The other strains are from catheter infections or suppurating wounds. Brilacidin was used as a control. MDR, multidrug resistant. (DOCX) Click here for additional data file.

S. aureus 740404 DUN = test: microbe, parasite or virus in culture
Protocol: as §1, §2

S. aureus BCB/POE = test: microbe, parasite or virus in culture
Protocol: as §1, §2

S. aureus COB = test: microbe, parasite or virus in culture
Protocol: as §1, §2

S. aureus FORT = test: microbe, parasite or virus in culture
Protocol: as §1, §2

S. aureus PM64 = test: microbe, parasite or virus in culture
Protocol: as §1, §2

E. coli 13090 = test: microbe, parasite or virus in culture
Protocol: (§3) For 15 d in MHB, MICs were determined daily for each pseudopeptide and their antibiotic controls. This was done using cells from the well in which the compound concentration was one-half of the MIC (1/2MIC). For each compound, the 1/2MIC well from the previous day’s MIC assay plate was re-suspended and the bacteria grown to a density of about 10^8 cells ml−1. The suspension was diluted in MHB or CAMHB (10^6 cells/ml) and then used to determine the MIC of the same compound determined by micro broth dilution. All MIC measurements were performed in duplicate. Aliquots of the 5 × 10^4 cell/ml dilutions for each 1/2MIC well were periodically plated on MHB and incubated at 35°C for 18 h to verify cell density by colony counts and for visual inspection of colony phenotypes. To control compound stability, peptide solution MICs were determined during and at the end of the 15 d and were compared to cells unexposed to antibiotics. In vivo resistance was also assessed in treated mice (1.5 mg.kg^−1) for 4 d (sepsis) or 6 d (skin abscesses). […] The broth microdilution method was performed as per EUCAST recommendations on 5 independent colonies per mouse (3 mice per set, 15 colonies per drug tested). For severe sepsis and subcutaneous abscesses, in vivo resistance was determined by plating aliquots of crude kidney extracts or abscesses on plates containing 1-, 2-, 4-, or 8-fold the peptide MICs 7 or 3 d post infections, respectively.

E. coli K12 = test: microbe, parasite or virus in culture
Protocol: as §3

E. coli MCR1 = test: microbe, parasite or virus in culture
Protocol: as §3

MRSA (Mu3) = test: microbe, parasite or virus in culture; conditions: MRSA (Mu3)
Protocol: as §3

MSSA (Newman) = test: microbe, parasite or virus in culture; conditions: MSSA (Newman)
Protocol: as §3

P. aeruginosa 15643 = test: microbe, parasite or virus in culture
Protocol: as §3

S. aureus MRSA = test: Time-kill assay at 30-fold MIC; type: cell-based; conditions: 4 h
Protocol: as §1

[1] = Stability in mouse serum (half-life); type: in vitro ADME; conditions: 25% mouse serum, pre-incubated 15 min at 37°C, peptide 10^−4 M, RP-HPLC peak areas, mean of biological triplicates
Protocol: as §1
Supplementary file pbio.3000337.s013.docx: S7 Table Peptide half-lives in human and mouse sera. […] Peptide amounts and half-lives were determined by HPLC. Experiments were conducted on 25% human or mouse sera. Values are shown in minutes. The mean values correspond to biological triplicates. HPLC, high pressure liquid chromatography. (DOCX) Click here for additional data file.

MRSA = test: Mild sepsis mouse model, survival; type: in vivo; conditions: mice, approximately 5 × 10^8 MRSA IV; single IV 1.5 mg.kg^−1 at 3 h or 15 h post infection; 14 d
From the text: Tolerance and toxicity studies were done on male Swiss mice (CD-1 Crl: CD-1 [ICR] IGS; Charles River). These were 7 to 10 weeks old and weighed an average of 37.2 g. All experimental protocols were approved by the Adaptive Therapeutics Animal Care and Use Committee (APAFiS #4508-2016031l15541258 v2). For the sepsis model, we used female Swiss mice (Janvier Labs), 6 to 8 weeks old and weighing approximately 30 g. Experiments were monitored in the ARCHE-BIOSIT animal lab in Rennes, in biological duplicate. We used Groups of 5 mice for the mild and the severe sepsis models with MRSA. Mice were IV inoculated with 150 μl of MRSA suspensions in 0.9% NaCl containing approximately 5 × 10^8 CFUs for the “mild” sepsis and approximately 2 × 10^9 CFUs for the “severe” sepsis, respectively. […] Mice survival was monitored for 4 d (“severe” sepsis) or 14 d (“mild” sepsis), and the statistical significance of difference(s) between the groups was evaluated using the Wilcoxon test. P < 0.05 was considered significant. Two weeks (“mild” sepsis) or 4 d (“severe” sepsis) after inoculation, mice were euthanized with CO2.

[2] = E. coli 13090, d0 of serial passages
[3] = E. coli 13090, d14 of serial passages at sub-MIC
[4] = E. coli K12, d0 of serial passages
[5] = E. coli K12, d14 of serial passages at sub-MIC
[6] = E. coli MCR1, d0 of serial passages
[7] = E. coli MCR1, d14 of serial passages at sub-MIC
[8] = d14 of serial passages at sub-MIC
[9] = P. aeruginosa 15643, d0 of serial passages
[10] = P. aeruginosa 15643, d14 of serial passages at sub-MIC

| Structure (SMILES) | MIC (E. coli 13090; [2]) | MIC (E. coli 13090; [3]) | MIC (E. coli K12; [4]) | MIC (E. coli K12; [5]) | MIC (E. coli MCR1; [6]) | MIC (E. coli MCR1; [7]) | MIC (MRSA (Mu3); [8]) | MIC (MSSA (Newman); d0 of serial passages) | MIC (MSSA (Newman); [8]) | MIC (P. aeruginosa 15643; [9]) | MIC (P. aeruginosa 15643; [10]) | Bactericidal activity in time-kill curves (S. aureus MRSA) | half-life [1] [min] | Survival in mild sepsis (MRSA) | other results |
| --- | --- | --- | --- | --- | --- | --- | --- | --- | --- | --- | --- | --- | --- | --- | --- |
| CC(C)[C@@H]1NC(=O)[C@H](CCCNC(=N)N)NC(=O)[C@H](CCCNC(=N)N)NC(=O)[C@H](Cc2c[nH]c3ccccc23)NC(=O)[C@H](Cc2ccccc2)NC(=O)[C@H](Cc2ccccc2)NC(=O)[C@H](CCCCN)NC1=O [Pep18] (cyclo(FFWRRVK)) | 16 (16.4) μM | 64 (65.6) μM | 16 (16.4) μM | 64 (65.6) μM | 16 (16.4) μM | 64 (65.6) μM | 16 (16.4) μM | 16 (16.4) μM | 64 (65.6) μM | 16 (16.4) μM | 16 (16.4) μM | higher bactericidal activities than vancomycin | 510 ± 150 | no effect | MIC (S. aureus 66534 E; MDR S. aureus clinical isolate 66534 E): 32 mg/L^-1; MIC (S. aureus 740404 DUN; MDR S. aureus clinical isolate 740404 DUN, human sepsis): 32 mg/L^-1; MIC (S. aureus BCB/POE; MDR S. aureus clinical isolate BCB/POE, human sepsis): 32 mg/L^-1; MIC (S. aureus COB; MDR S. aureus clinical isolate COB): 32 mg/L^-1; MIC (S. aureus FORT; MDR S. aureus clinical isolate FORT): >32 mg/L^-1; MIC (S. aureus PM64; MDR S. aureus clinical isolate PM64): 32 mg/L^-1 |
| CC(C)[C@@H]1NC(=O)[C@H](CCCNC(=N)N)NC(=O)[C@H](CCCNC(=N)N)NC(=O)CN(Cc2cccc3ccccc23)NC(=O)[C@H](Cc2ccccc2)NC(=O)CN(Cc2cccc3ccccc23)NC(=O)[C@H](CCCCN)NC1=O [Pep19] (cyclo([azaβ3(1Nal)]F[azaβ3(1Nal)]RRVK)) | 8 (8.8) μM | 8 (8.8) μM | 4 (4.4) μM | 8 (8.8) μM | 8 (8.8) μM | 8 (8.8) μM | 8 (8.8) μM | 4 (4.4) μM | 4 (4.4) μM | 8 (8.8) μM | 16 (16.2) μM | higher bactericidal activities than vancomycin | 540 ± 105 | survived better than those without treatment | MIC (S. aureus 66534 E; 66534 E): 2 mg/L^-1; MIC (S. aureus 740404 DUN; 740404 DUN): 8 mg/L^-1; MIC (S. aureus BCB/POE; BCB/POE): 8 mg/L^-1; MIC (S. aureus COB; COB): 2 mg/L^-1; MIC (S. aureus FORT; FORT): 8 mg/L^-1; MIC (S. aureus PM64; PM64): 8 mg/L^-1; MIC (MRSA (Mu3); d0 of serial passages): 4 (4.4) μM |
